# Columns and labels:
# NRP2 (Neuropilin 2) = target: T1, NRP2 (Neuropilin 2) (Homo sapiens, UniProt O60462); assay: plate-based competitive binding assay: displacement of biotinylated VEGFA, or of VEGFC, from coated recombinant human NRP2 (chemiluminescence); type: biochemical
# T1 construct: recombinant human NRP2
# T1 sequence (O60462 21-931): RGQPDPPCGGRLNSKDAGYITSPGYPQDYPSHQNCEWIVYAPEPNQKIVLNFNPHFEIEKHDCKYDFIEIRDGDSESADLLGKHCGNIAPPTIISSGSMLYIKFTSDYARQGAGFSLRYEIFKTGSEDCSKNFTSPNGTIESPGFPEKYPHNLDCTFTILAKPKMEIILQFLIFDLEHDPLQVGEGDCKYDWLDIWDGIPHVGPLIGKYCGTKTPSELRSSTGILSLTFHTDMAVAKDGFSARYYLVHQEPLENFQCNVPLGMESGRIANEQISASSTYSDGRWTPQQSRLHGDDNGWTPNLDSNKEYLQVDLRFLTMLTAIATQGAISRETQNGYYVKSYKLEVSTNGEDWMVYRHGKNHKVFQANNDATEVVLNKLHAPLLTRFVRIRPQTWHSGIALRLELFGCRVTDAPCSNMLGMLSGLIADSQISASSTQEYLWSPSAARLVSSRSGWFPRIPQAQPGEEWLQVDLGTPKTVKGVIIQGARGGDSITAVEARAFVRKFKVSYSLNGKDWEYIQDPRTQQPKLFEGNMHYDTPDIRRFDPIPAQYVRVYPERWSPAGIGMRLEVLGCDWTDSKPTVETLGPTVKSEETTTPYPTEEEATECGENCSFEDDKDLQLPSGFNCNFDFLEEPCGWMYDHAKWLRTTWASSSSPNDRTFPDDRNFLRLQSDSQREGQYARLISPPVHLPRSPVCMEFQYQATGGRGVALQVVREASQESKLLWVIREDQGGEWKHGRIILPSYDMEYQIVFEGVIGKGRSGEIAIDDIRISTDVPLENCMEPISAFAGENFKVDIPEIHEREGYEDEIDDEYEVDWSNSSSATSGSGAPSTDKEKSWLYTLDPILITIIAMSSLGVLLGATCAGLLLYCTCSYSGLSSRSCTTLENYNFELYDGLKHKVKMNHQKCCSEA
# Description: plate-based competitive binding assay: displacement of biotinylated VEGFA, or of VEGFC, from coated recombinant human NRP2 (chemiluminescence) on NRP2 (Neuropilin 2) | NRPa-308 inhibited VEGFA/NRP1 and VEGFA/NRP2 binding in a dose-dependent manner
# NRP1 (Neuropilin 1) = target: T2, NRP1 (Neuropilin 1) (Homo sapiens, UniProt O14786); assay: plate-based competitive binding assay: displacement of biotinylated VEGFA from coated recombinant human NRP1 (chemiluminescence); type: biochemical
# T2 construct: recombinant human NRP1
# Description: plate-based competitive binding assay: displacement of biotinylated VEGFA from coated recombinant human NRP1 (chemiluminescence) on NRP1 (Neuropilin 1) | NRPa-308 inhibited VEGFA/NRP1 and VEGFA/NRP2 binding in a dose-dependent manner
# T2 sequence (O14786 22-923): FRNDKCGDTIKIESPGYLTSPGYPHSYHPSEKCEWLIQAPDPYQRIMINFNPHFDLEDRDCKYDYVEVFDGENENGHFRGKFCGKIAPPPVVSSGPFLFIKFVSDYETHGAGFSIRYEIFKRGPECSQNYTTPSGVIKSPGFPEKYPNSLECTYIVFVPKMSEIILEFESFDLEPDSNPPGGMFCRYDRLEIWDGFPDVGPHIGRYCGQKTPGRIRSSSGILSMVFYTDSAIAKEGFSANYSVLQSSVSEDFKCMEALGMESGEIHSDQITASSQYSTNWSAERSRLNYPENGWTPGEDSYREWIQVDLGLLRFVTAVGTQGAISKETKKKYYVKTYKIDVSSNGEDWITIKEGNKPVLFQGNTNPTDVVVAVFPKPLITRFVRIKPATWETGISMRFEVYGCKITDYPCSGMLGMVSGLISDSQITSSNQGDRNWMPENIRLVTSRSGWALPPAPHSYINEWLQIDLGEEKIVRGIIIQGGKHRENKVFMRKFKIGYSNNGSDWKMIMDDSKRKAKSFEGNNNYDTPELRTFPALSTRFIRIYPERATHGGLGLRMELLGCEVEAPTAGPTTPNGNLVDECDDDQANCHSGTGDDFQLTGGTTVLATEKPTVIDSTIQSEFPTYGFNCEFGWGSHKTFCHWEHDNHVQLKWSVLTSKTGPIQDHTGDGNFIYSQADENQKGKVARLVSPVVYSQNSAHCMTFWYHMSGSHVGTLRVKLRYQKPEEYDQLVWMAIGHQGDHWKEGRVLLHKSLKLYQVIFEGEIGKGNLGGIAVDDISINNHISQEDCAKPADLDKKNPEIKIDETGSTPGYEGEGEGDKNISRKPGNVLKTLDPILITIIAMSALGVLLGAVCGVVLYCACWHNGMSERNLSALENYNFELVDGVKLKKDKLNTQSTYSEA
compound,measurement,setting,value
CCOc1ccccc1NC(=O)c1ccc(C)c(S(=O)(=O)Nc2ccc(C)cc2)c1 [NRPa-308],% maximal inhibition,NRP2 (Neuropilin 2),~ 40 % maximal inhibition
same,% maximal inhibition,NRP1 (Neuropilin 1),~ 40 % maximal inhibition

# Reference: PMC7812727, “Neuropilin 1 and Neuropilin 2 gene invalidation or pharmacological inhibition reveals their relevance for the treatment of metastatic renal cell carcinoma” (Journal of Experimental & Clinical Cancer Research : CR, 2021)
